Results on 1 molecule are retold here after paper PMC7168327, “Designed Antimicrobial Peptides for Topical Treatment of Antibiotic Resistant Acne Vulgaris” (Antibiotics, 2020).

Series [1] deals with C. acnes ATCC6919. Format: cell-based, Cutibacterium acnes. The settings on record: C. acnes ATCC6919; RCM broth, anaerobic, 1 × 10^6 CFU per mL, two-fold dilutions 0.5–32 μg/mL, 48 h, OD 600 nm; mean of three replicates. Here is the method:
(§1) The ten antibiotic resistant C. acnes clinical isolates were acquired from BEI resources with the two reference strains obtained from American Type Culture Collection (ATCC, Manassas, VA, USA). C. acnes is a relatively slow-growing, typically aerotolerant anaerobic so all in vitro C. acnes experiments were performed under anaerobic conditions.
(§2) Single colonies were inoculated in Reinforced Clostridium Medium (RCM) broth supplemented with sodium thioglycolate and incubated at 37 °C, with shaking at 200 rpm, for 2 or 3 days to reach logarithmic growth (OD600nm = 1.0). Each C. acnes (1 × 10^6 CFU per mL) was incubated with dAMP or clindamycin at two-fold serial dilutions (0.5–32 μg per mL) in RCM on a 96-well microplate for 48 h. Three replicas were included for each test article concentration. Bacterial growth was measured by optical density at 600 nm to determine the MIC for each dAMP applied.

In series [2] the test system is C. acnes HL007PA1. Format: cell-based, Cutibacterium acnes. The settings on record: C. acnes HL007PA1; RCM broth, anaerobic, 1 × 10^6 CFU per mL, two-fold dilutions 0.5–32 μg/mL, 48 h, OD 600 nm; mean of three replicates. The method, then:
as §1, §2

Series [3] has as its system C. acnes HL013PA1. Format: cell-based, Cutibacterium acnes. The conditions noted are these: C. acnes HL013PA1; RCM broth, anaerobic, 1 × 10^6 CFU per mL, two-fold dilutions 0.5–32 μg/mL, 48 h, OD 600 nm; mean of three replicates. The method, then:
as §1, §2

The test system of series [4] is C. acnes HL038PA1. Format: cell-based, Cutibacterium acnes. The conditions noted are these: C. acnes HL038PA1; RCM broth, anaerobic, 1 × 10^6 CFU per mL, two-fold dilutions 0.5–32 μg/mL, 48 h, OD 600 nm; mean of three replicates. Here is the method:
as §1, §2

The subject of series [5] is C. acnes HL043PA1. Format: cell-based, Cutibacterium acnes. The conditions noted are these: C. acnes HL043PA1; RCM broth, anaerobic, 1 × 10^6 CFU per mL, two-fold dilutions 0.5–32 μg/mL, 48 h, OD 600 nm; mean of three replicates. Here is the method:
as §1, §2

Series [6] has as its system C. acnes HL043PA2. Format: cell-based, Cutibacterium acnes. The settings on record: C. acnes HL043PA2 (multi-drug resistant); RCM broth, anaerobic, 1 × 10^6 CFU per mL, two-fold dilutions 0.5–32 μg/mL, 48 h, OD 600 nm; mean of three replicates. Here is the method:
as §1, §2

Series [7] has as its system C. acnes HL045PA1. Format: cell-based, Cutibacterium acnes. The conditions noted are these: C. acnes HL045PA1; RCM broth, anaerobic, 1 × 10^6 CFU per mL, two-fold dilutions 0.5–32 μg/mL, 48 h, OD 600 nm; mean of three replicates. The method, then: as §1, §2
The subject of series [8] is C. acnes HL053PA1. Format: cell-based, Cutibacterium acnes. The conditions noted are these: C. acnes HL053PA1; RCM broth, anaerobic, 1 × 10^6 CFU per mL, two-fold dilutions 0.5–32 μg/mL, 48 h, OD 600 nm; mean of three replicates. Here is the method:
as §1, §2

The test system of series [9] is C. acnes HL056PA1. Format: cell-based, Cutibacterium acnes. The settings on record: C. acnes HL056PA1; RCM broth, anaerobic, 1 × 10^6 CFU per mL, two-fold dilutions 0.5–32 μg/mL, 48 h, OD 600 nm; mean of three replicates. The method, then: as §1, §2
The test system of series [10] is C. acnes HL072PA1. Format: cell-based, Cutibacterium acnes. The conditions noted are these: C. acnes HL072PA1; RCM broth, anaerobic, 1 × 10^6 CFU per mL, two-fold dilutions 0.5–32 μg/mL, 48 h, OD 600 nm; mean of three replicates. The method, then: as §1, §2
Series [11] concerns C. acnes HL082PA2. Format: cell-based, Cutibacterium acnes. The conditions noted are these: C. acnes HL082PA2; RCM broth, anaerobic, 1 × 10^6 CFU per mL, two-fold dilutions 0.5–32 μg/mL, 48 h, OD 600 nm; mean of three replicates. The method, then: as §1, §2
In series [12] the test system is ten C. acnes clinical isolates and two C. acnes ATCC reference strains. Format: cell-based, Cutibacterium acnes. Here is the method: as §1, §2
Series [13] relates to bioluminescent human immortalized keratinocytes (HaCaT). Kind of series: Mammalian cytotoxicity, bioluminescent human keratinocytes. Format: cell-based. The conditions noted are these: bioluminescent HaCaT. Here is the method: (§3) Noninvasive and real-time monitoring of mammalian cytotoxicity to assess the potential skin toxicity of the dAMPs was evaluated using bioluminescent human immortalized keratinocytes (HaCaT, AddexBio, San Diego, CA, USA). The bioluminescent variant of HaCaT was constructed by transfection with a luciferase gene (RediFect Red-Fluc-Puromycin, Cat# CL596002). Keratinocytes (1 × 10^4 cells, 100 μL) were plated in 96-well black-walled plates. The candidate dAMPs were 2-fold serially diluted from 1024 µg/mL in growth medium supplemented with 150 µg/mL D-luciferin. Each concentration was performed in triplicate, with the final volume being 200 μL. Imaging was performed at select times (0, 15, and 30 min and 1, 3, 5, and 8 h) after the addition of the dAMP, and compared to concurrently run vehicle-control, using an IVIS Lumina imaging system (Caliper Life Sciences, Inc., Hopkinton, MA, USA). For imaging, the 96-well plate was positioned on the stage (12.5-cm field of view), with an open emission filter, binning of 4, and f-stop 1 and a 1-min exposure time. Data analysis was performed using the Living Image software program (version 4.3, Caliper Life Sciences, Inc.). The dAMP concentrations required to kill 10% and 50% of keratinocytes were determined using GraphPad Prism 7 (GraphPad Software, San Diego, CA, USA).

The test system of series [14] is C. acnes HL043PA2 compared to human keratinocytes. Format: cell-based. Here is the method: In evaluating the clinical utility of each of the candidate dAMPs for C. acnes treatment, the Therapeutic Index was determined. The Therapeutic Index is defined as the ratio of concentration at which the dAMP is active against the prokaryotic C. acnes pathogen without inducing cytotoxic damage to the surrounding mammalian cells. The EC10 and EC50 doses, defined as the concentrations required to kill 10% and 50% respectively of human keratinocytes following 8 h incubation with each of the Riptide dAMPs, are tabulated and graphed in Table 2 and Figure 3, respectively. The larger the Therapeutic Index, the greater the specificity of the dAMP for destroying C. acnes cells.
as §2, §3

≈ marks a conversion by molar mass, not a printed value. Bridge positions count the residues as written; N and C are the ends. Peptide text beside a SMILES is read from it.

The MIC is the least concentration at which growth counts as inhibited. A high value points to weaker potency. With `CC[C@H](C)[C@@H]1NC(=O)CNC(=O)[C@H](CCCCN)NC(=O)[C@H](Cc2ccc(O)cc2)NC(=O)[C@@H]2CSSC[C@H](NC1=O)C(=O)N[C@@H](Cc1ccc(O)cc1)C(=O)N[C@@H](CCCCN)C(=O)N[C@@H](CCCCN)C(=O)N[C@H](C(=O)N[C@@H](CCCCN)C(N)=O)CSSC[C@H](NC(=O)[C@H](Cc1c[nH]c3ccccc13)NC(=O)[C@@H](N)CCCNC(=N)N)C(=O)N[C@@H](Cc1ccccc1)C(=O)N[C@@H](CCCCN)C(=O)N[C@@H](C(C)C)C(=O)N2` [RP556] (H-RWCFKVCYKGICYKKCK-NH2; disulfide 3-16, 7-12), the MIC in series [1] is recorded as 4 µg/mL (≈ 1.86 µM); in [2], 4 µg/mL (≈ 1.86 µM); in series [3] it was 2 µg/mL (≈ 0.929 µM); in [4] it was 4 µg/mL (≈ 1.86 µM); in series [5], 4 µg/mL (≈ 1.86 µM); in series [6], 4 µg/mL (≈ 1.86 µM). Besides, the MIC in series [7] came out at 4 µg/mL (≈ 1.86 µM); in [8], 4 µg/mL (≈ 1.86 µM); in series [9], 2 µg/mL (≈ 0.929 µM); in [10], 8 µg/mL (≈ 3.72 µM); in series [11], 2 µg/mL (≈ 0.929 µM). In [12] (0.5–32 μg/mL concentration range evaluated), the “in vitro anti-bacterial activity against the C. acnes bacterial strains (in words)” value is “most active”. Further, the “MIC values against all C. acnes isolates” value in series [12] (span over ten antibiotic resistant isolates and two ATCC reference strains) was in the range of 2 to 8 µg/mL. Besides, the “viability of human keratinocytes” value in series [13] (8 h incubation at 256 μg/mL) was “greater than 80%”. The “EC10, concentration required to kill 10% of human keratinocytes” value in series [13] (1 × 10^4 cells/well, 8 h incubation, 2-fold dilutions from 1024 µg/mL, triplicate, IVIS imaging, GraphPad Prism 7) came to 276 µg/mL. Also, in [14] (keratinocyte EC10 (8 h) versus MIC against HL043PA2 C. acnes), the “Therapeutic Index (EC10 / MIC)” value was 70. Besides, the “Therapeutic Index (EC50 / MIC)” value in [14] (keratinocyte EC50 (8 h) versus MIC against HL043PA2 C. acnes) turned out to be 130.
